Measurements as given in patent publication US20250034117A1, “Deuterated 1,3 Dihydro -2H-indole-2-one derivatives” (HMNC Holding GmbH, priority 2023, published 2025).
Like-named read-outs stand apart in the source and are kept apart here.

Key:
[1] = in vitro; details: human, microsomes, pH 7.4
Protocol: (§1) Liver microsomal stability assays are conducted with human liver microsomes at a final liver microsomal protein concentration of 0.1007 mg per ml. Test compounds are prepared as solutions in 0.01% DMSO, 0.25% acetonitril and 0.25% methanol. The test compound is added to the reaction mixture at a final concentration of 0.1 μM and pre-incubated with pooled liver microsomes in phosphate buffer (pH 7.4) for 10 min on plate shaker in a 37° C. incubator. The reaction is initiated by adding a NADPH-generating system and incubated for 0, 15, 30, 45, and 60 min. The reaction is stopped by transferring the incubation mixture to Stop Buffer solvent (acetonitrile/methanol). Samples are then mixed and centrifuged. The supernatant samples are loaded onto the LC/MS/MS for analysis. Samples are analyzed by LC/MS/MS using multiple reaction monitoring (MRM). The UPLC system consists of a binary LC pump with autosampler, a C-18 column, and a gradient.
(§2) Four reference compounds are tested in each assay (Propranolol, imipramine, verapamil and terfenadine).
(§3) For data analysis, peak areas corresponding to the test compound are recorded. The compound remaining is calculated by comparing the peak area at each time point to time zero. The half-life is calculated from the slope of the initial linear range of the logarithmic curve of compound remaining (%) vs. time, assuming first order kinetics.

[2] = human, microsomes, 0.1 μM, pH 7.4
Protocol: as §1, §2, §3

[3] = 10 mg/kg p.o.; cited from earlier work
[4] = target: V1a (Homo sapiens (Human), UniProt P37288); assay: Activity assay in the agonistic mode, V1a; type: biochemical
[5] = target: OT receptors (Homo sapiens (Human), UniProt P30559); assay: Activity assay in the agonistic mode, OT receptors; type: biochemical
[6] = target: V2 (Homo sapiens (Human), UniProt P30518); assay: Activity assay in the agonistic mode, V2; type: biochemical
[7] = In vitro human liver microsomal (HLM) stability assay; details: for Half-life: human liver microsomes, first order kinetics; for % Compound Remaining (Mean): 0.1 μM compound, human liver microsomes 0.1007 mg/ml
Protocol: as §1, §2, §3

V1a, sequence (P37288 whole entry): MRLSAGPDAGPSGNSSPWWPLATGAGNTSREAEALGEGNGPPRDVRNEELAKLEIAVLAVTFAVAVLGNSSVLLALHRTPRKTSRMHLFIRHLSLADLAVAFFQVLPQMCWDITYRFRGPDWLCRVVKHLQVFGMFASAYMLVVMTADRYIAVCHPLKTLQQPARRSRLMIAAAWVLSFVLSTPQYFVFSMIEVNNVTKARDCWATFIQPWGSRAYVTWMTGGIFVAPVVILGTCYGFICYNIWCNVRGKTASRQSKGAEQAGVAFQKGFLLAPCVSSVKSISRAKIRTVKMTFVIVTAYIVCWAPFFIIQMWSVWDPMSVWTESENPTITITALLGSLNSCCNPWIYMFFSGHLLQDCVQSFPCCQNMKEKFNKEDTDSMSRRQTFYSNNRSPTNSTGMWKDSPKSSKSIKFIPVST
V2, sequence (P30518 whole entry): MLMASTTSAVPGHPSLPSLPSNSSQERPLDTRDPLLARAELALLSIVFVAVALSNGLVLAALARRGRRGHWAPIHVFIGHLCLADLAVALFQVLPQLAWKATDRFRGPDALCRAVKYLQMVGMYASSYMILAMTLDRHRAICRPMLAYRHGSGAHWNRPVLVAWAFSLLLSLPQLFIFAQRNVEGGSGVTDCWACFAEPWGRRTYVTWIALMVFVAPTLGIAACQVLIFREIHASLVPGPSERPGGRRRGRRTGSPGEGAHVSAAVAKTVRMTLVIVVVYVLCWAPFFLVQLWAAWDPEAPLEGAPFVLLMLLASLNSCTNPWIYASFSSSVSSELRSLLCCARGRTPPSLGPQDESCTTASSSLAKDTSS
OT receptors, sequence (P30559 whole entry): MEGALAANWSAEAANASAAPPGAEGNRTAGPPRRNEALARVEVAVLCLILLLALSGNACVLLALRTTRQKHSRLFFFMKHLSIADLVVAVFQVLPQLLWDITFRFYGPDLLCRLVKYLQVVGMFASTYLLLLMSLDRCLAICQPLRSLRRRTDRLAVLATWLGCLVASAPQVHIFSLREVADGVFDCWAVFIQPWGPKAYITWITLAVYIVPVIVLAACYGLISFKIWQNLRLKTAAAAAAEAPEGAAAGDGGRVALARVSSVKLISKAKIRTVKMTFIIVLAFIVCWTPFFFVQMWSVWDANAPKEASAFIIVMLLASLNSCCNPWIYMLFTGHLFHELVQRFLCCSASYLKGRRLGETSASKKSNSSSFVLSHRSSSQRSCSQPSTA

half-life at 0.1 μM [1] [min]	% Compound Remaining (Mean) ([2]; 0 h) [%]	% Compound Remaining (Mean) ([2]; 0.25 h) [%]	% Compound Remaining (Mean) ([2]; 0.5 h) [%]	% Compound Remaining (Mean) ([2]; 0.75 h) [%]	% Compound Remaining (Mean) ([2]; 1 h) [%]	activity in the agonistic mode in comparison to undeuterated nelivaptan [4]	activity in the agonistic mode in comparison to undeuterated nelivaptan [5]	activity in the agonistic mode in comparison to undeuterated nelivaptan [6]	Structure (SMILES)	duration of action [3] [h]	Half-life [7] [min]	% Compound Remaining (Mean) ([7]; incubation 0 min) [%]	% Compound Remaining (Mean) ([7]; incubation 15 min) [%]	% Compound Remaining (Mean) ([7]; incubation 30 min) [%]	% Compound Remaining (Mean) ([7]; incubation 45 min) [%]	% Compound Remaining (Mean) ([7]; incubation 60 min) [%]
3.2	100.0	3.8	0.4	0.1	0.03				COc1ccc(S(=O)(=O)N2C(=O)[C@@](c3ccccc3OC)(N3C[C@H](O)C[C@H]3C(=O)N(C)C)c3cc(Cl)ccc32)c(OC)c1 [Nelivaptan, (2S,4R)-1-[(3R)-5-chloro-1-(2,4-dimethoxyphenyl)sulfonyl-3-(2-methoxyphenyl)-2-oxoindol-3-yl]-4-hydroxy-N,N-dimethylpyrrolidine-2-carboxamide, reference compound]	> 4						
						no significant difference	no significant difference	no significant difference	[2H]C([2H])([2H])Oc1ccc(S(=O)(=O)N2C(=O)[C@@](c3ccccc3OC([2H])([2H])[2H])(N3C[C@H](O)C[C@H]3C(=O)N(C([2H])([2H])[2H])C([2H])([2H])[2H])c3cc(Cl)ccc32)c(OC([2H])([2H])[2H])c1 [Example 3, (2S,4R)1-[(3R)-5-chloro-1-[(2,4-dimeth-d6-oxyphenyl)sulfonyl]-2,3-dihydro-3-(2-methoxy-d3-phenyl)-2-oxo-1H-indol-3-yl]-4-hydroxy-N,N-dimethyl-d6-2-pyrrolidinecarboxamide]		6.2	100	5.40	0.39	0.15	0.13
4.1	100.0	7.7	0.4	0.1	0.02	no significant difference	no significant difference	no significant difference	[2H]C([2H])([2H])Oc1ccccc1[C@@]1(N2C[C@H](O)C[C@H]2C(=O)N(C)C)C(=O)N(S(=O)(=O)c2ccc(OC)cc2OC)c2ccc(Cl)cc21 [Example 2, (2S,4R)1-[(3R)-5-chloro-1-[(2,4-dimethoxyphenyl)sulfonyl]-2,3-dihydro-3-(2-methoxy-d3-phenyl)-2-oxo-1H-indol-3-yl]-4-hydroxy-N,N-dimethyl-2-pyrrolidinecarboxamide]							

Structure (SMILES)	half-life at 0.1 μM [1] [min]	% Compound Remaining (Mean) ([2]; 0 h) [%]	% Compound Remaining (Mean) ([2]; 0.25 h) [%]	% Compound Remaining (Mean) ([2]; 0.5 h) [%]	% Compound Remaining (Mean) ([2]; 0.75 h) [%]	% Compound Remaining (Mean) ([2]; 1 h) [%]	activity in the agonistic mode in comparison to undeuterated nelivaptan [4]	activity in the agonistic mode in comparison to undeuterated nelivaptan [5]	activity in the agonistic mode in comparison to undeuterated nelivaptan [6]	duration of action [3] [h]	Half-life [7] [min]	% Compound Remaining (Mean) ([7]; incubation 0 min) [%]	% Compound Remaining (Mean) ([7]; incubation 15 min) [%]	% Compound Remaining (Mean) ([7]; incubation 30 min) [%]	% Compound Remaining (Mean) ([7]; incubation 45 min) [%]	% Compound Remaining (Mean) ([7]; incubation 60 min) [%]
[2H]C([2H])([2H])N(C(=O)[C@@H]1C[C@@H](O)CN1[C@]1(c2ccccc2OC)C(=O)N(S(=O)(=O)c2ccc(OC)cc2OC)c2ccc(Cl)cc21)C([2H])([2H])[2H] [Example 1, (2S,4R)1-[(3R)-5-chloro-1-[(2,4-dimethoxyphenyl)sulfonyl]-2,3-dihydro-3-(2-methoxyphenyl)-2-oxo-1H-indol-3-yl]-4-hydroxy-N,N-dimethyl-d6-2-pyrrolidinecarboxamide]							no significant difference	no significant difference	no significant difference		4.7	100.0	14.3	1.2	0.1	0.03
